In this data set the test system is CCRIS mutagenicity, Ames/micronucleus/aberration tests. Kind of data set: CCRIS mutagenicity studies.
[1] abbreviates: Test System: AMES SALMONELLA TYPHIMURIUM, Strain/Indicator: TA98, Metabolic Activation: NONE, Method: STANDARD PLATE.
[2] abbreviates: Test System: AMES SALMONELLA TYPHIMURIUM, Strain/Indicator: TA100, Metabolic Activation: NONE, Method: STANDARD PLATE.
The mark [3] stands for this setting: Test System: AMES SALMONELLA TYPHIMURIUM, Strain/Indicator: TA98, Metabolic Activation: NONE, Method: PREINCUBATION
[4] abbreviates: Test System: AMES SALMONELLA TYPHIMURIUM, Strain/Indicator: TA100, Metabolic Activation: NONE, Method: PREINCUBATION

Consider nine compounds from PubChem BioAssay AID1259407 (Chemical Carcinogenesis Research Information System (CCRIS), 2018).

Molecules are shown by their SMILES. Calls of active or inactive are those of the source. The rule behind the calls is not given here.

With `Cc1ccc2c(ccc3c4ccccc4ccc23)c1`, the mutagenic call is, setting by setting: (Test System: AMES SALMONELLA TYPHIMURIUM, Strain/Indicator: TA98, Metabolic Activation: RAT, LIVER, CYTOSOL, AROCLOR 1254, Method: STANDARD PLATE) “inactive; negative”; (Test System: AMES SALMONELLA TYPHIMURIUM, Strain/Indicator: TA98, Metabolic Activation: RAT, LIVER, MICROSOMES, AROCLOR 1254, Method: STANDARD PLATE) “inactive; negative”; (Test System: AMES SALMONELLA TYPHIMURIUM, Strain/Indicator: TA100, Metabolic Activation: RAT, LIVER, MICROSOMES, 2-METHYLCHRYSENE, Method: STANDARD PLATE) “inactive; negative”; (Test System: AMES SALMONELLA TYPHIMURIUM, Strain/Indicator: TA100, Metabolic Activation: RAT, LIVER, MICROSOMES, AROCLOR 1254, Method: STANDARD PLATE) “active; positive”; (Test System: AMES SALMONELLA TYPHIMURIUM, Strain/Indicator: TA100, Metabolic Activation: RAT, LIVER, MICROSOMES, Method: STANDARD PLATE) “inactive; negative”.

As for `OC1c2cccc3ccc4cccc1c4c23`, where the note is “Test System: AMES SALMONELLA TYPHIMURIUM, Strain/Indicator: TA98, Metabolic Activation: HUMAN, LIVER, CYTOSOL, PAPS, Method: PREINCUBATION”, the mutagenic call is “inactive; negative”.

For the compound `O=C1c2c(O)ccc(O)c2C(=O)c2c(NCCNCCO)ccc(NCCNCCO)c21`, the mutagenic call is “inactive; negative” (Test System: AMES SALMONELLA TYPHIMURIUM, Strain/Indicator: TA97, Metabolic Activation: NONE, Method: STANDARD PLATE); “inactive; negative” (Test System: AMES SALMONELLA TYPHIMURIUM, Strain/Indicator: TA97, Metabolic Activation: RAT, LIVER, S-9, PHENOBARBITAL AND ALPHA-NAPHTHOFLAVONE, Method: STANDARD PLATE); “inactive; negative” (Test System: AMES SALMONELLA TYPHIMURIUM, Strain/Indicator: TA97A, Metabolic Activation: NONE, Method: STANDARD PLATE); “active; positive” under setting [1]; “active; positive” (Test System: AMES SALMONELLA TYPHIMURIUM, Strain/Indicator: TA98, Metabolic Activation: RAT, LIVER, S-9, PHENOBARBITAL AND ALPHA-NAPHTHOFLAVONE, Method: STANDARD PLATE); “inactive; negative” under setting [2]. Also, the mutagenic call runs as follows: (Test System: AMES SALMONELLA TYPHIMURIUM, Strain/Indicator: TA100, Metabolic Activation: RAT, LIVER, S-9, PHENOBARBITAL AND ALPHA-NAPHTHOFLAVONE, Method: STANDARD PLATE) “inactive; negative”; (Test System: AMES SALMONELLA TYPHIMURIUM, Strain/Indicator: TA1535, Metabolic Activation: NONE, Method: STANDARD PLATE) “inactive; negative”; (Test System: AMES SALMONELLA TYPHIMURIUM, Strain/Indicator: TA1535, Metabolic Activation: RAT, LIVER, S-9, PHENOBARBITAL AND ALPHA-NAPHTHOFLAVONE, Method: STANDARD PLATE) “inactive; negative”; (Test System: AMES SALMONELLA TYPHIMURIUM, Strain/Indicator: TA1538, Metabolic Activation: NONE, Method: STANDARD PLATE) “active; positive”; (Test System: MOUSE LYMPHOMA, Strain/Indicator: L5178Y (TK+/TK-), Metabolic Activation: NONE, Method: SUSPENSION/PLATE) “active; positive”; (Test System: MOUSE LYMPHOMA, Strain/Indicator: L5178Y (TK+/TK-), Metabolic Activation: RAT, LIVER, S-9, AROCLOR 1242 AND 1254 (2:1), Method: SUSPENSION/PLATE) “active; positive”.

Consider `COC(=O)CN(CC(=O)OC)C1C[C@H]1N(CC(=O)OC)CC(=O)OC` (stereo not given in full), for which, where the note is “Test System: CHINESE HAMSTER V-79, Strain/Indicator: V-79/OUABAIN, Metabolic Activation: NONE, Method: STANDARD PLATE”, the mutagenic call is “active; positive”.

Turning to `COc1ccc(N=O)cc1`, the mutagenic call was “active; positive” under setting [1]; “active; positive” (Test System: AMES SALMONELLA TYPHIMURIUM, Strain/Indicator: TA98, Metabolic Activation: RAT, LIVER, S-9, AROCLOR 1254, Method: STANDARD PLATE); “active; positive” under setting [2]; “active; positive” (Test System: AMES SALMONELLA TYPHIMURIUM, Strain/Indicator: TA100, Metabolic Activation: RAT, LIVER, S-9, AROCLOR 1254, Method: STANDARD PLATE).

On to `Cc1c(N=O)cccc1[N+](=O)[O-]`, for which the mutagenic call is, setting by setting: under setting [3], “inactive; negative”; (Test System: AMES SALMONELLA TYPHIMURIUM, Strain/Indicator: TA98, Metabolic Activation: RAT, LIVER, S-9, PHENOBARBITAL AND 5,6-BENZOFLAVONE, Method: PREINCUBATION) “inactive; negative”; under setting [4], “inactive; negative”; (Test System: AMES SALMONELLA TYPHIMURIUM, Strain/Indicator: TA100, Metabolic Activation: RAT, LIVER, S-9, PHENOBARBITAL AND 5,6-BENZOFLAVONE, Method: PREINCUBATION) “inactive; negative”.

`C=Cc1ccccc1Cl`: the mutagenic call was “inactive; negative” (Test System: AMES SALMONELLA TYPHIMURIUM, Strain/Indicator: TA97, Metabolic Activation: HAMSTER, LIVER, S-9, AROCLOR 1254 (10 OR 30%), Method: PREINCUBATION); “inactive; negative” (Test System: AMES SALMONELLA TYPHIMURIUM, Strain/Indicator: TA97, Metabolic Activation: NONE, Method: PREINCUBATION); “inactive; negative” (Test System: AMES SALMONELLA TYPHIMURIUM, Strain/Indicator: TA97, Metabolic Activation: RAT, LIVER, S-9, AROCLOR 1254 (10 OR 30%), Method: PREINCUBATION); “inactive; negative” (Test System: AMES SALMONELLA TYPHIMURIUM, Strain/Indicator: TA98, Metabolic Activation: HAMSTER, LIVER, S-9, AROCLOR 1254 (10 OR 30%), Method: PREINCUBATION); “inactive; negative” under setting [3]; “inactive; negative” (Test System: AMES SALMONELLA TYPHIMURIUM, Strain/Indicator: TA98, Metabolic Activation: RAT, LIVER, S-9, AROCLOR 1254 (10 OR 30%), Method: PREINCUBATION). Further, the mutagenic call reads like this: (Test System: AMES SALMONELLA TYPHIMURIUM, Strain/Indicator: TA100, Metabolic Activation: HAMSTER, LIVER, S-9, AROCLOR 1254 (10 OR 30%), Method: PREINCUBATION) “inactive; negative”; under setting [4], “inactive; negative”; (Test System: AMES SALMONELLA TYPHIMURIUM, Strain/Indicator: TA100, Metabolic Activation: RAT, LIVER, S-9, AROCLOR 1254 (10 OR 30%), Method: PREINCUBATION) “inactive; negative”; (Test System: AMES SALMONELLA TYPHIMURIUM, Strain/Indicator: TA1535, Metabolic Activation: HAMSTER, LIVER, S-9, AROCLOR 1254 (10 OR 30%), Method: PREINCUBATION) “inactive; negative”; (Test System: AMES SALMONELLA TYPHIMURIUM, Strain/Indicator: TA1535, Metabolic Activation: NONE, Method: PREINCUBATION) “inactive; negative”; (Test System: AMES SALMONELLA TYPHIMURIUM, Strain/Indicator: TA1535, Metabolic Activation: RAT, LIVER, S-9, AROCLOR 1254 (10 OR 30%), Method: PREINCUBATION) “inactive; negative”.

Take `CCc1c2ccccc2c(C)c2ccc3ccccc3c12`: the mutagenic call reads like this: (Test System: AMES SALMONELLA TYPHIMURIUM, Strain/Indicator: TA98, Method: STANDARD PLATE) “inactive; negative”; (Test System: AMES SALMONELLA TYPHIMURIUM, Strain/Indicator: TA100, Metabolic Activation: RAT, LIVER, S-9, PHENOBARBITAL, Method: STANDARD PLATE) “inactive; negative”; (Test System: AMES SALMONELLA TYPHIMURIUM, Strain/Indicator: TA100, Method: STANDARD PLATE) “inactive; negative”.

On to `ClCCBr`, for which the mutagenic call reads like this: (End Point: IN VITRO CHROMOSOMAL ABERRATIONS, Test System: CHL CELLS, Metabolic Activation: RAT, LIVER, S-9, SODIUM PHENOBARBITAL AND 5,6-BENZOFLAVONE) “active; positive (structural changes)”; (Test System: AMES SALMONELLA TYPHIMURIUM, Strain/Indicator: TA1530, Metabolic Activation: NONE, Method: SPOT) “active; positive”; (Test System: AMES SALMONELLA TYPHIMURIUM, Strain/Indicator: TA1535, Metabolic Activation: NONE, Method: SPOT) “active; positive”.
